Values belong to the molecule of their own block, whether it stands above or below them.
What was measured:
[1] = cited from earlier work
[2] = molecular target: PDGFRa (Homo sapiens, UniProt P16234); assay: HotSpot 10-dose dose-response kinase assay: PDGFRa; format: biochemical; conditions: read-out: Dose-response IC50 PDGFRa; 10-dose dose-response, 1 μM ATP
[3] = molecular target: RET (Homo sapiens, UniProt P07949); assay: HotSpot 10-dose dose-response kinase assay: RET; format: biochemical; conditions: read-out: Dose-response IC50 RET; 10-dose dose-response, 1 μM ATP
[4] = molecular target: EGFR (d746–750) (Homo sapiens, UniProt P00533, DEL746-750); assay: HotSpot 10-dose dose-response kinase assay: EGFR; format: biochemical; conditions: read-out: Dose-response IC50 EGFR (d746–750); 10-dose dose-response, 1 μM ATP
[5] = molecular target: TYK2 (Homo sapiens, UniProt P29597); assay: 369-kinase HotSpot kinome screen: TYK2; format: biochemical; conditions: read-out: Tyk2 inhibition, from kinome screen
[6] = molecular target: EGFR (T790M) (Homo sapiens, UniProt P00533, T790M); assay: HotSpot 10-dose dose-response kinase assay: EGFR; format: biochemical; conditions: read-out: Dose-response IC50 EGFR (T790M); 10-dose dose-response, 1 μM ATP
[7] = system: ANT; conditions: read-out: IC50 ANT inhibition; cited from earlier work
[8] = molecular target: EGFR (L858R) (Homo sapiens, UniProt P00533, L858R); assay: HotSpot 10-dose dose-response kinase assay: EGFR; format: biochemical; conditions: read-out: Dose-response IC50 EGFR (L858R); 10-dose dose-response, 1 μM ATP
[9] = molecular target: JAK2 (Homo sapiens, UniProt O60674); assay: HotSpot 10-dose dose-response kinase assay: JAK2; format: biochemical; conditions: read-out: Dose-response IC50 JAK2; 10-dose dose-response, 1 μM ATP
[10] = molecular target: JAK1 (Homo sapiens, UniProt P23458); assay: HotSpot 10-dose dose-response kinase assay: JAK1; format: biochemical; conditions: read-out: Dose-response IC50 JAK1; 10-dose dose-response, 1 μM ATP
[11] = molecular target: ABL1 (Homo sapiens, UniProt P00519); assay: HotSpot 10-dose dose-response kinase assay: ABL1; format: biochemical; conditions: read-out: Dose-response IC50 ABL1; 10-dose dose-response, 1 μM ATP
[12] = molecular target: EGFR (G719S) (Homo sapiens, UniProt P00533, G719S); assay: HotSpot 10-dose dose-response kinase assay: EGFR; format: biochemical; conditions: read-out: Dose-response IC50 EGFR (G719S); 10-dose dose-response, 1 μM ATP
[13] = molecular target: BRAF (Homo sapiens, UniProt P15056); assay: HotSpot 10-dose dose-response kinase assay: BRAF; format: biochemical; conditions: read-out: Dose-response IC50 BRAF; 10-dose dose-response, 1 μM ATP
[14] = molecular target: JAK3 (Homo sapiens, UniProt P52333); assay: HotSpot 10-dose dose-response kinase assay: JAK3; format: biochemical; conditions: read-out: Dose-response IC50 JAK3; 10-dose dose-response, 1 μM ATP
[15] = molecular target: PKCepsilon (Homo sapiens, UniProt Q02156); assay: HotSpot 10-dose dose-response kinase assay: PKCepsilon; format: biochemical; conditions: read-out: Dose-response IC50 PKCepsilon; 10-dose dose-response, 1 μM ATP
[16] = molecular target: BRAF (V599E) (Homo sapiens, UniProt P15056, V600E); assay: HotSpot 10-dose dose-response kinase assay: BRAF; format: biochemical; conditions: read-out: Dose-response IC50 BRAF (V599E); 10-dose dose-response, 1 μM ATP
[17] = molecular target: DDR2 (Homo sapiens, UniProt Q16832); assay: HotSpot 10-dose dose-response kinase assay: DDR2; format: biochemical; conditions: read-out: Dose-response IC50 DDR2; 10-dose dose-response, 1 μM ATP
[18] = molecular target: EGFR (L858R, T790M) (Homo sapiens, UniProt P00533, L858R/T790M); assay: HotSpot 10-dose dose-response kinase assay: EGFR; format: biochemical; conditions: read-out: Dose-response IC50 EGFR (L858R, T790M); 10-dose dose-response, 1 μM ATP
[19] = system: kinases; assay: Other kinase assays; format: biochemical; conditions: Figures S10 and S11
[20] = molecular target: EGFR (Homo sapiens, UniProt P00533); assay: EGFR wild type kinase-domain inhibition assay
[21] = system: MCF-7, SW620, SW480, H460, A549, and MDA-MB-231 cell lines; assay: GGOH rescue of cell growth inhibition; format: cell-based; conditions: six cell lines, 20 μM GGOH

Sequence of BRAF (V599E) (P15056 416-766 V600E limits assumed): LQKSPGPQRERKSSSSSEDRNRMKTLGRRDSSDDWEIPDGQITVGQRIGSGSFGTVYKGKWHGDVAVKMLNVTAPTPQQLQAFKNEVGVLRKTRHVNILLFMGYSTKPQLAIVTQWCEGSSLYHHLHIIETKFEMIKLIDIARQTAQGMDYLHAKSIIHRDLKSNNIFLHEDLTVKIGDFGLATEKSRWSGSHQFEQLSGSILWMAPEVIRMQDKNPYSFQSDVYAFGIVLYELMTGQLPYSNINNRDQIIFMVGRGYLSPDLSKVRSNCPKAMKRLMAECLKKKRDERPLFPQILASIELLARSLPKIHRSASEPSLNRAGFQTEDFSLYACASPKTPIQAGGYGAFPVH
Sequence of BRAF (P15056 whole entry): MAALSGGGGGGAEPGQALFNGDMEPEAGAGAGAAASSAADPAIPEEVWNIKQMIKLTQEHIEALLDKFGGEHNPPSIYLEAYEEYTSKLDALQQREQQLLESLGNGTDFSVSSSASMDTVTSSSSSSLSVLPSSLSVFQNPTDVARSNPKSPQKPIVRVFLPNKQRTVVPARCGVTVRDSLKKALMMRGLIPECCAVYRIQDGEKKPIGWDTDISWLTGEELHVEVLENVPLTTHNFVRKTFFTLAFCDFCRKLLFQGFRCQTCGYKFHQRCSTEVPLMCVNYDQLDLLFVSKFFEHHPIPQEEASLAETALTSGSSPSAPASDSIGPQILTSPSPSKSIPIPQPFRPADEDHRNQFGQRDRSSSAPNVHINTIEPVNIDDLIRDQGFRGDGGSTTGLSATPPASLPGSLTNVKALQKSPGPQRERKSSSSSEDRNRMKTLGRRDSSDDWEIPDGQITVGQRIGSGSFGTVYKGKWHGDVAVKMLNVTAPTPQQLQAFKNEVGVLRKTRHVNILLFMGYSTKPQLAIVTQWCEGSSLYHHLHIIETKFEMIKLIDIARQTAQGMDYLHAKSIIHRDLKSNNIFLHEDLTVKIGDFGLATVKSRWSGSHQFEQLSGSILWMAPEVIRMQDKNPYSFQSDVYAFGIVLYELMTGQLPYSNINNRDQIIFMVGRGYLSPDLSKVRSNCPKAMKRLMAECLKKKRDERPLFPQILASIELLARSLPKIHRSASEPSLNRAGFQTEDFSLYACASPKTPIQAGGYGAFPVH
Sequence of JAK2 (O60674 whole entry): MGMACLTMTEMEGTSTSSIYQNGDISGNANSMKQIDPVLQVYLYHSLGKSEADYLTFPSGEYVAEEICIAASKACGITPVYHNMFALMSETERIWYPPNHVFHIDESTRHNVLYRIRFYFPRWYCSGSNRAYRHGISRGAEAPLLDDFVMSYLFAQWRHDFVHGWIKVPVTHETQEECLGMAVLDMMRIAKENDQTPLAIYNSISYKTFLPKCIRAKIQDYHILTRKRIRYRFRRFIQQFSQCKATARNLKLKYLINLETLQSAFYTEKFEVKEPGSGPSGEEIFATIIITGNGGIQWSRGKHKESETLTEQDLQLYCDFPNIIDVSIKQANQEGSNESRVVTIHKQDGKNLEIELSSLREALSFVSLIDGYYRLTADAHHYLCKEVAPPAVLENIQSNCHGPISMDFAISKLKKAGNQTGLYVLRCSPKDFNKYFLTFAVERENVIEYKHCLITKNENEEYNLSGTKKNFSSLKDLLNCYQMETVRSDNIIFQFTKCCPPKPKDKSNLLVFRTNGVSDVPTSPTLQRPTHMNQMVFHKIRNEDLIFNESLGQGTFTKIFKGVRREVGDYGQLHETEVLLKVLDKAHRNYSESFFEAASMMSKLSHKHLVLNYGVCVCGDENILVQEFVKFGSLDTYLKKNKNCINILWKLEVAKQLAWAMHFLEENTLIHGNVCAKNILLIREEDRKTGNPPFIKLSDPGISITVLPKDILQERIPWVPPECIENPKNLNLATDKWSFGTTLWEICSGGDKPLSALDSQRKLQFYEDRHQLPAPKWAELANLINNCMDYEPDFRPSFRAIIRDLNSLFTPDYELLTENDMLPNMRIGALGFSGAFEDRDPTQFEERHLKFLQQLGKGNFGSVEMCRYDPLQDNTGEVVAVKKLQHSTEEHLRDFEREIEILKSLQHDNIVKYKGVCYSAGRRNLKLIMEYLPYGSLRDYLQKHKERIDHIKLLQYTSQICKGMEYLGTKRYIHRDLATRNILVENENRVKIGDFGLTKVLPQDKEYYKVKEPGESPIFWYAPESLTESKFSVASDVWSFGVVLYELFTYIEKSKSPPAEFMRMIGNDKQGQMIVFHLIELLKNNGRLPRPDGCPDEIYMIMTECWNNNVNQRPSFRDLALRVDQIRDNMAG
Sequence of JAK1 (P23458 whole entry): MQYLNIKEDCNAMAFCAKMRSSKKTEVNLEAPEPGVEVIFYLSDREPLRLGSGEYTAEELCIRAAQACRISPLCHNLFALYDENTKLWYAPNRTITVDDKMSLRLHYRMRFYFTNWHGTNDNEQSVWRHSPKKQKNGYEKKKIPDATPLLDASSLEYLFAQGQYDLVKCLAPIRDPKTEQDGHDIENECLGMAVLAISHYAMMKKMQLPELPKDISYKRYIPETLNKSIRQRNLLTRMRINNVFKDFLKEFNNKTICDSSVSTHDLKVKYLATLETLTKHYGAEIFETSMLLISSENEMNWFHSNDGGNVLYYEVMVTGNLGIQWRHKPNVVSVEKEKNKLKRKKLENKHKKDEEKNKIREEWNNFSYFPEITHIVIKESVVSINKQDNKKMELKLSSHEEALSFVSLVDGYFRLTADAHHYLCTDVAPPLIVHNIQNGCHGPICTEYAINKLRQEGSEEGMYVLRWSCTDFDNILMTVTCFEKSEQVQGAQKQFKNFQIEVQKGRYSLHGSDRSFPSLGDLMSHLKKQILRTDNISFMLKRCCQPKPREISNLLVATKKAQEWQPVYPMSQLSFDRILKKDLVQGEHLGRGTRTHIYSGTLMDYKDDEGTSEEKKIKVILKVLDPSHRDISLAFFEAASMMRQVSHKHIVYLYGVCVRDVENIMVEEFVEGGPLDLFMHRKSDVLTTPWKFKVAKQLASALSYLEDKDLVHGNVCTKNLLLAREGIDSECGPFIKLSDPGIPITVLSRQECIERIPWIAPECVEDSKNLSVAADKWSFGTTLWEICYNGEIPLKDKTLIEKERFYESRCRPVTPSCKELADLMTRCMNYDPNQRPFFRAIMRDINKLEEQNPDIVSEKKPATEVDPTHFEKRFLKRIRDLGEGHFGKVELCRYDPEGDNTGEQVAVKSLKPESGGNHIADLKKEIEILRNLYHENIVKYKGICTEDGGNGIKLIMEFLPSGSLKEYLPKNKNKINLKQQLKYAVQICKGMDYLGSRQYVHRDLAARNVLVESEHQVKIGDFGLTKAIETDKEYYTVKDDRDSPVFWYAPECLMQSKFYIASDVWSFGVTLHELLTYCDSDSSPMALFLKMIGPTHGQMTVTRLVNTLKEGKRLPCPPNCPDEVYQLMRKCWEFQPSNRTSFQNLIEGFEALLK
Sequence of ABL1 (P00519 whole entry): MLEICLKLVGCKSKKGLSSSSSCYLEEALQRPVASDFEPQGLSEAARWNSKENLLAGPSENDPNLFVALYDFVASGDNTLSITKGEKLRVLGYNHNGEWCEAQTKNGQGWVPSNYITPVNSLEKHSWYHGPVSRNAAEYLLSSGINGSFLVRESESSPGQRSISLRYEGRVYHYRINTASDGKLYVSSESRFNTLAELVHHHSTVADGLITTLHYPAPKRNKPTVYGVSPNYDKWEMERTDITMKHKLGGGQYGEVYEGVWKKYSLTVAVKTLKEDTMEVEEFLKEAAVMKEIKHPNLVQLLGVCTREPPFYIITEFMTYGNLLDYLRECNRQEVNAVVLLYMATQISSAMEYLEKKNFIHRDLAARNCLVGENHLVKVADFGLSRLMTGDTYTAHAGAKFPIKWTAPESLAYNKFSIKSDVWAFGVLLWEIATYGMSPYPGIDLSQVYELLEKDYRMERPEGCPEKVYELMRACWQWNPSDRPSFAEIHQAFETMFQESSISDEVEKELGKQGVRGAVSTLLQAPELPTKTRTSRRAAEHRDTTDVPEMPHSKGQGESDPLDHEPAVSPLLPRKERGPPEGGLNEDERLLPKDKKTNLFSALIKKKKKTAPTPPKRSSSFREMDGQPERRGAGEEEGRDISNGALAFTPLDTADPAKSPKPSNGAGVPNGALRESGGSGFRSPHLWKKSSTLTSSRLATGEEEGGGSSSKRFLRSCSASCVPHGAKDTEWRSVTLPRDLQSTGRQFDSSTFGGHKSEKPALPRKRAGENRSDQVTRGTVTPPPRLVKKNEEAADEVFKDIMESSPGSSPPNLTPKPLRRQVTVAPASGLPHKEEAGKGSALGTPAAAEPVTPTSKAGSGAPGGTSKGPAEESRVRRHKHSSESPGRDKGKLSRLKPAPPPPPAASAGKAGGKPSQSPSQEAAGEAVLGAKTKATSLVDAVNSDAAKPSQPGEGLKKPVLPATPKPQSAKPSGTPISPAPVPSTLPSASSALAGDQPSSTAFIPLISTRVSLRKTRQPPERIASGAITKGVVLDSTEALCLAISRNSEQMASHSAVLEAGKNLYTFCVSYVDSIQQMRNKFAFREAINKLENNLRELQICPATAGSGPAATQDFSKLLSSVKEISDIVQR

SMILES: Nc1ncnc2c1ncn2[C@@H]1O[C@H](COP(=O)(O)OP(=O)(O)OP(=O)(O)O)[C@@H](O)[C@H]1O [ATP]
pKa4 [1]: 7.1

SMILES: Nc1ncnc2c1ncn2[C@@H]1O[C@H](COP(=O)(O)OP(=O)(O)C(Cl)(Cl)P(=O)(O)O)[C@@H](O)[C@H]1O [compound 4, adenosine 5′-(beta, gamma-dichloro-methylene) diphosphate]
IC50 [2]: 0.004 µM
IC50 [3]: 0.14 µM
IC50 [4]: 4.3 µM
IC50 [5]: ~0.23 µM
IC50 [6]: 0.27 µM
IC50 [7]: ~50 µM
IC50 [8]: 0.49 µM
IC50 [9]: 0.013 µM
IC50 [10]: 0.066 µM
IC50 [11]: 0.079 µM
IC50 [12]: 0.76 µM
IC50 [13]: 6.4 µM
IC50 [14]: 0.005 µM
IC50 [15]: 0.043 µM
IC50 [16]: 230 µM
IC50 [17]: 0.047 µM
IC50 [18]: 0.08 µM

SMILES: Nc1ncnc2c1ncn2C1OC(COP(=O)(O)OP(=O)(O)C(Sc2ccc(Cl)cc2)P(=O)(O)O)C(O)C1O (stereo not shown) [compound 5]
activity in other kinase assays [19]: low activity

IC50 [20]: 72 ± 12 µM
SMILES: O=P(O)(O)C(O)(Cn1ccnc1)P(=O)(O)O [compound 6, zoledronate]

SMILES: Nc1ncnc2c1ncn2[C@@H]1O[C@H](COP(=O)(O)OP(=O)(O)C(Br)(Br)P(=O)(O)O)[C@@H](O)[C@H]1O [compound 23]
IC50 [18]: 0.016 µM

SMILES: NCCC(O)(P(=O)(O)O)P(=O)(O)O [pamidronate]
GGOH rescue of growth inhibition [21]: very small rescue effects

— publication PMC6022752 (Journal of the American Chemical Society, 2018)
